Values quoted from earlier work as cited in patent US20040024036A1, “Pharmaceutical composition for transdermal delivery of befloxatone” (priority 2000, published 2004).

Experiments:
MAO-A = molecular target: T1, MAO-A (Homo sapiens, UniProt P21397); conditions: reversible inhibitor
T1 sequence (P21397 1-527): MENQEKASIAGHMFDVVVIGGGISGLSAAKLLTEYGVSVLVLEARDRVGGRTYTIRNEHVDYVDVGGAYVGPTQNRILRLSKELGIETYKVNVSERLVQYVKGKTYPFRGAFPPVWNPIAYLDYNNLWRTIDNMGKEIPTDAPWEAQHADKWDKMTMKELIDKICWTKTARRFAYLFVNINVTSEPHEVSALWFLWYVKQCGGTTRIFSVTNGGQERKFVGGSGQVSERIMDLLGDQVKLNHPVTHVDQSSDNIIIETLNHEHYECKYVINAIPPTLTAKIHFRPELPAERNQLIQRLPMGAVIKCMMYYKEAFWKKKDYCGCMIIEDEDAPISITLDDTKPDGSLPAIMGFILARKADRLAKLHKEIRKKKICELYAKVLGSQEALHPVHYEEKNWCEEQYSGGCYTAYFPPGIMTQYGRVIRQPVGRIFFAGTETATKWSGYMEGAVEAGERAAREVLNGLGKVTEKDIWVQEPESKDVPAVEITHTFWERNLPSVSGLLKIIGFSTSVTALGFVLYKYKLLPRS

MAO-B = molecular target: T2, MAO-B (Homo sapiens, UniProt P27338); conditions: MAO-A versus MAO-B
T2 sequence (P27338 1-520): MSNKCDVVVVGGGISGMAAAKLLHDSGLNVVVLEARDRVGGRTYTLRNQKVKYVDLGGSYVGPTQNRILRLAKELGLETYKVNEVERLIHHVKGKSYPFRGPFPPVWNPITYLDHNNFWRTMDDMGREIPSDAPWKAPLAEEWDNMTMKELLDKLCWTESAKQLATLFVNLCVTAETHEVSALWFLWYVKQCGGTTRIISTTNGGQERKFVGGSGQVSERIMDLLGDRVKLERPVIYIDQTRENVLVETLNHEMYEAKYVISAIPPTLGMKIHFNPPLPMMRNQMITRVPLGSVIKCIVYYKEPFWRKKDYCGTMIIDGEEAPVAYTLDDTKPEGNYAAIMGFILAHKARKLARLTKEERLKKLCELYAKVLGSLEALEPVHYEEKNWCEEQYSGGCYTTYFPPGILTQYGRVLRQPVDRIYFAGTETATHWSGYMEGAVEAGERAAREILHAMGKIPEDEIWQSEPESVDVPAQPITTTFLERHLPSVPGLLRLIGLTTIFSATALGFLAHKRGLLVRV

[1] = test system: noradrenalin (NA) reuptake
[2] = test system: serotonin (5-HT) reuptake

In the case of `COC[C@H]1CN(c2ccc(OCC[C@@H](O)C(F)(F)F)cc2)C(=O)O1` [befloxatone], the “affinity for the A isoform (MAO-A)” value (MAO-A) is listed as “very high affinity”, the “selectivity toward the B isoform (MAO-B)” value (MAO-B) is listed as “very good selectivity” and the “effect on noradrenalin (NA) reuptake” value [1] is listed as “does not affect”. The “effect on serotonin (5-HT) reuptake” value [2] was “does not affect” and the “effect on dopamine (DA) reuptake” value (dopamine (DA) reuptake) was “does not affect”.
